Reference: ChEMBL document CHEMBL4417629, “Inhibitors of RAD52 Recombination Protein and Methods Using Same” (2018)
Calls of active or inactive are those of the source. No cut-off for these calls is given here.

How the values were obtained:
[1] = biological target: T1, DNA repair protein RAD51 homolog 1 (Homo sapiens) (UniProt Q06609); assay: Inhibition of RAD51 (unknown origin) assessed as inhibition of DNA pairing by measuring D-loop formation between [32P]-ssDNA and homologous supercoiled pUC19 DNA at 30 uM incubated for 15 mins by gel electrophoresis method relative to control
T1 sequence (whole entry): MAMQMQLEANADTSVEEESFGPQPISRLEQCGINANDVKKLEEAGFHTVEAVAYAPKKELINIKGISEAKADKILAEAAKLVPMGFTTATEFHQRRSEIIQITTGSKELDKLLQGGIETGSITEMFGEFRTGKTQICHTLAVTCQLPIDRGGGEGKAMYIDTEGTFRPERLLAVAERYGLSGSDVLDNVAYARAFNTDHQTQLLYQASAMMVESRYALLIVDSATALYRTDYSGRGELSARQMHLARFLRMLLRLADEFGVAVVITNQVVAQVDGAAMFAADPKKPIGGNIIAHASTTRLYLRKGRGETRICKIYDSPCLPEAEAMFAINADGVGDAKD

[2] = biological target: T2, DNA repair protein RAD52 homolog (Homo sapiens) (UniProt P43351); assay: Inhibition of RAD52 (unknown origin) assessed as inhibition of DNA pairing using [32P]-ssDNA by measuring D-loop formation incubated for 15 mins by gel electrophoresis method
T2 sequence (whole entry): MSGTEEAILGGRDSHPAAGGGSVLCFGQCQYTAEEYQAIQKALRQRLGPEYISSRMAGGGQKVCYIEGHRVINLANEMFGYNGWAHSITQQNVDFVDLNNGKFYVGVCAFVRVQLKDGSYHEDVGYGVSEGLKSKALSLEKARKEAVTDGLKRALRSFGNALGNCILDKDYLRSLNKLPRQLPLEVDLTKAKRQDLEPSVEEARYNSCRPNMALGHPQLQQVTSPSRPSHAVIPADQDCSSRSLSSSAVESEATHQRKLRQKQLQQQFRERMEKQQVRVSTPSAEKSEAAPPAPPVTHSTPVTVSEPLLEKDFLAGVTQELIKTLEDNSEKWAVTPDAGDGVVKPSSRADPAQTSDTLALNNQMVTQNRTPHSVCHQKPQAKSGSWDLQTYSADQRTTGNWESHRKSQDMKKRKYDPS

[3] = biological target: T1, DNA repair protein RAD51 homolog 1 (Homo sapiens); assay: Inhibition of RAD51 (unknown origin) assessed as inhibition of DNA pairing by measuring D-loop formation between [32P]-ssDNA and homologous supercoiled pUC19 DNA at 10 times RAD52 IC50 incubated for 15 mins by gel electrophoresis method relative to control
Homo sapiens = species on record: Homo sapiens; assay: Growth inhibition of BRCA1-deficient human UWB1.289 cells at 2.5 to 10 uM following media refreshment every 3 days and measured on day 10 by CellTiter-Glo assay; type: functional
CAPAN-1 = assay: Growth inhibition of BRCA2-deficient human Capan1 cells at 2.5 to 10 uM following media refreshment every 3 days and measured on day 10 by CellTiter-Glo assay; type: functional, cell-based
Salmon testes DNA = assay: Binding affinity to salmon sperm DNA incubated for 20 mins by acridine orange displacement based fluorescence polarization assay; type: nucleic-acid assay; details: Salmonidae
[4] = biological target: T2, DNA repair protein RAD52 homolog (Homo sapiens); assay: Inhibition of RAD52 (unknown origin) expressed in BCR-ABL1-positive and BRCA1-deficient mouse 32Dcl3 cells expressing GFP-RAD52 assessed as cisplatin-induced RAD52 foci formation by measuring fraction of cell without foci at 2.5 uM by AlexaFluor-594 staining based inverted fluorescence microscopy (reference value: 48.4 +/- 6.2%); set-up: scale not given: the % may be the effect or the level left
[5] = biological target: T2, DNA repair protein RAD52 homolog (Homo sapiens); assay: Inhibition of RAD52 (unknown origin) expressed in BCR-ABL1-positive and BRCA1-deficient mouse 32Dcl3 cells expressing GFP-RAD52 assessed as reduction in cisplatin-induced RAD52 foci formation at 2.5 uM by AlexaFluor-594 staining based inverted fluorescence microscopy relative to control; type: cell-based

Row | inhibition [1] [%] | inhibition [2] | inhibition [3] [%] | Activity (Salmon testes DNA) | Activity [4] [%] | fold change (FC) [5] | SMILES | growth inhibition (GI) (Homo sapiens) | growth inhibition (GI) (CAPAN-1)
1 | > 90 | Dose-dependent effect | 73.6 |  |  |  | Cc1ccc(-c2nc(C(=O)NCCCN3CCOCC3)cc3c2[nH]c2ccccc23)cc1 |  | 
2 | > 90 | Dose-dependent effect | 112 |  |  |  | Cc1cc(N2CCN(C)CC2)nc2ccc(NC(S)=NCCCN3CCN(C)CC3)cc12 |  | 
3 | > 90 | Dose-dependent effect | 38.4 |  |  |  | CN1CCN(CCCNC(=O)c2cc3c(-c4ccc(Cl)cc4)nn(C)c3s2)CC1 |  | 
4 | > 90 | Dose-dependent effect | 92.5 |  |  |  | Cc1ccc(C(=O)c2oc3ccc(Cl)cc3c2NC(=O)CN2CCN(C)CC2)cc1 |  | 
5 | > 90 | Dose-dependent effect | 48.6 |  |  |  | Cn1nc(-c2ccc(Cl)cc2)c2cc(C(=O)NCCCN3CCCCCC3)sc21 | Active | Active

Second part, the molecule before the results:

Row | SMILES | inhibition [1] [%] | inhibition [2] | inhibition [3] [%] | Activity (Salmon testes DNA) | Activity [4] [%] | fold change (FC) [5] | growth inhibition (GI) (Homo sapiens) | growth inhibition (GI) (CAPAN-1)
6 | COc1ccccc1Nc1nc(NCCCO)c2ccccc2n1 | > 90 | Dose-dependent effect | 89.7 |  |  |  | Active | Active
7 | CCN1CCN(CCCNC(=S)Nc2ccc3nc(N(C)CCN)cc(C)c3c2)CC1 | > 90 | Dose-dependent effect | 111 |  |  |  |  | 
8 | CCN(CC)CCCN(Cc1cc2cc3c(cc2nc1O)OCO3)C(S)=NCCCN(C)C | > 90 | Dose-dependent effect | 102 |  |  |  |  | 
9 | COc1ccc(OC)c(Nc2nc(NCCCO)c3ccccc3n2)c1 | > 90 | Dose-dependent effect | 75.6 | inactive | 71.9 | 2 to 2.5 | Active | Active
